In US7629156B2, “Ethanol production in fermentation of mixed sugars containing xylose” (E.I. du Pont de Nemours and Company, priority 2006, dated 2009):

How the values were obtained:
Assay type in all cases: cell-based, Zymomonas mobilis
[1] = tested on: ZW658 strain; experiment: Flask growth of ZW658 on glucose and xylose with sorbitol 0.5-10 mM; conditions: after 14.25 hours, total sugar about 160 g/L
Experimental: (§1) Approximately 1 ml of well mixed sample was obtained from flask or fermentor. First the sample absorbance was measured directly with a spectrophotometer (Amersham Biosciences Ultrospec 3300pro, GE Healthcare, Piscataway, N.J., USA). If the reading was lower than 0.6 unit, no dilution was needed. If the reading was higher than 0.6 unit, the sample was diluted with culture medium until the actual reading was in the range of 0.1 to 0.6 unit. The original OD was calculated from the dilution ratio and the actual reading.
(§2) Glycerol stock of seed frozen at −80° C. was thawed, then inoculated into sterile culture tubes with mixture of 60 g/L glucose, 20 g/L xylose, 10 g/L yeast extract (YE), 10 g/L KH2PO4, 2 g/L (NH4)2SO4, and 1 g/L MgSO4. Initial pH was adjusted to 5.5 with 4 N KOH. This revival culture was grown statically overnight at 37° C. It was transferred into shake flasks with 75 g/L glucose, 25 g/L xylose, 10 g/L yeast extract (YE), 10 g/L KH2PO4, 2 g/L (NH4)2SO4, and 1 g/L MgSO4. Initial pH was adjusted to 5.5 with 4 N KOH. Growth was monitored by measuring OD600. When the OD reached approximately 5, a certain volume of the seed was withdrawn into a sterile syringe for inoculation.
In five sterilized 125 ml Erlenmeyer culture flasks (Cat. No. 30180-036, VWR International, USA), 10 ml of ZW658 strain seed culture at OD600 of approximately 5 (measured at 600 nm) was inoculated into each flask with 100 ml of aqueous solution containing 100 g/L glucose, 80 g/L xylose, 10 g/L yeast extract (YE), 10 g/L KH2PO4, 2 g/L (NH4)2SO4, 1 g/L MgSO4.7H2O, and various concentrations of sorbitol (0, 0.5, 1, 2, and 10 mM). After inoculation, the total sugar concentration was about 160 g/L due to dilution by the seed culture. Initial pH was adjusted to 5.5 with 4 N KOH solution. Mixing speed was set at 150 rpm. Fermentation was conducted at 33° C. and pH was not controlled. Samples were taken periodically. Samples were diluted with medium (as described in General Methods) and the OD600 was measured to monitor cell growth. […] Cultures with higher concentration of sorbitol, in this range, grew faster and better. After 14.25 hours, the OD600 were 4.19, 7.10, 8.08, 8.62, and 10.1, respectively, for sorbitol concentrations of 0, 0.5, 1, 2, and 10 mM.

[2] = tested on: ZW658 strain; experiment: Flask fermentation of ZW658 on glucose and xylose with sorbitol 10-200 mM
Experimental: as §1
(§3) The analysis of sugars, acetate, ethanol, and other by-products was done with an Agilent 1100 series HPLC and Agilent ChemStation software for LC 3D. The column was BioRad Aminex HPX-87H(HPLC Organic Analysis Column 125-0140) with BioRad Micro-Guard Cartridge Cation-H (125-0129). The operating conditions were:
as §2
In five sterilized 125 ml Erlenmeyer culture flasks (Cat. No. 30180-036, VWR International, USA), 10 ml of ZW658 strain seed culture at Optical Density of approximately 5 (measured at 600 nm; OD600) was inoculated into each flask with 100 ml of aqueous solution containing 110 g/L glucose, 90 g/L xylose, 10 g/L yeast extract (YE), 2 g/L KH2PO4, 4 g/L KHCO3, and various concentrations of sorbitol (10, 20, 50, 100, and 200 mM). Initial pH was adjusted to 5.5 with 4 NH3PO4 solution. Mixing speed was set at 150 rpm. Fermentation was conducted at 33° C. and pH was not controlled. Samples were taken periodically. Samples were filtered through 0.22 micron filters, and the filtrates were analyzed by HPLC as described in General Methods for ethanol. Samples were diluted with medium (as described in General Methods) and the OD600 was measured to monitor cell growth. […] After 24 hours, the OD600 were 7.74, 7.86, 8.04, 7.82, and 7.12, respectively, for sorbitol concentrations of 10, 20, 50, 100, and 200 mM. After 48 hours, the OD600 were 8.30, 8.26, 8.84, 8.12, and 7.72, respectively, for sorbitol concentrations of 10, 20, 50, 100, and 200 mM. […] Ethanol production was slightly slower with 100 or 200 mM sorbitol than with 10, 20, or 50 mM sorbitol, although all cultures reached about the same final amount of ethanol produced. […] Thus 10 mM sorbitol is adequate to provide maximal ethanol production under these conditions.

[3] = tested on: ZW658 strain; experiment: Tube fermentation of ZW658 on glucose and xylose with various sugar alcohols (Example 13); conditions: sugar alcohol in the medium vs control
Experimental: as §1, §3
In eight sterilized 50 ml screw-cap centrifuge tubes (Cat. No. 21008-178, VWR International, USA), 200 μl of ZW658 strain glycerol stock at OD600 of approximately 10 was inoculated into each flask with 25 ml of aqueous solution containing 92 g/L glucose, 82 g/L xylose, 10 g/L yeast extract (YE), 2 g/L KH2PO4, 1 g/L MgSO4.7H2O, and either 10 mM of sorbitol, arabitol, adonitol (also called ribitol), or galactitol; or 50 mM of arabitol, adonitol, or galactitol. The control had no sugar alcohol added. Initial pH was adjusted to 5.5 with 4 N H3PO4 solution. Fermentation was conducted at 33° C. and pH was not controlled. Samples were taken periodically between 0 and 40 hr. Samples were filtered through 0.22 micron filters, and the filtrates were analyzed by HPLC as described in General Methods for glucose, xylose, xylitol, and ethanol. Samples were diluted with medium (as described in General Methods) and the OD600 was measured to monitor cell growth. Results of growth and glucose utilization are given in FIGS. 20A and 20B, respectively. Results of xylose utilization and ethanol production are given in FIGS. 21A and 21B, respectively. Cultures with sorbitol or galactitol grew much faster and better than the control. Cultures with adonitol also grew better. After 40 hours, the OD600 were 7 to 8, for cultures supplemented with sorbitol or galactitol; the OD600 were about 5, for cultures supplemented with adonitol; while the OD600 were less than 1 for other cultures. […] The presence of sorbitol, galactitol, or adonitol allowed more xylose utilization, without production of xylitol.

`OC[C@@H](O)[C@@H](O)[C@H](O)[C@@H](O)CO` [sorbitol] gave an OD600 ([1]; 0.5 mM sorbitol) of 7.10, an OD600 ([1]; 1 mM sorbitol) of 8.08 and an OD600 ([1]; 2 mM sorbitol) of 8.62. The OD600 ([1]; 10 mM sorbitol) was 10.1, the xylitol ([2]; 10-200 mM sorbitol, any of the samples) was “No xylitol was detected” and the OD600 ([2]; after 24 hours, 10 mM sorbitol, 110 g/L glucose, 90 g/L xylose) was 7.74. The OD600 ([2]; after 24 hours, 20 mM sorbitol) was 7.86, the OD600 ([2]; after 24 hours, 50 mM sorbitol) was 8.04 and the OD600 ([2]; after 24 hours, 100 mM sorbitol) was 7.82. The OD600 ([2]; after 24 hours, 200 mM sorbitol) was 7.12, the OD600 ([2]; after 48 hours, 10 mM sorbitol) was 8.30 and the OD600 ([2]; after 48 hours, 20 mM sorbitol) was 8.26. It also gave an OD600 ([2]; after 48 hours, 50 mM sorbitol) of 8.84, an OD600 ([2]; after 48 hours, 100 mM sorbitol) of 8.12 and an OD600 ([2]; after 48 hours, 200 mM sorbitol) of 7.72. For the same compound, the ethanol production [3] was “ethanol production was also better” and the xylose utilization [3] was “More xylose was utilized”.
